According to patent publication US6756526B2, “Drought tolerant plants and methods of increasing drought tolerance in plants” (Kansas State University Research Foundation, priority 2001, dated 2004):
“Also recorded” adds a separate entry of the source.

Legend:
[1] = system: protoplasts of barley aleurone and Vicia faba guard cells; settings: cited from earlier work
guard cell protoplasts = settings: PA applied to guard cell protoplasts; cited from earlier work
[2] = system: wild-type Arabidopsis plants; assay: Progressive drought by withholding irrigation, with ABA spray; assay type: in vivo, Arabidopsis thaliana; settings: ABA 10 μM sprayed once a day, wild-type plants under drought
Protocol: (§1) The depletion of PLDα in guard cells provides a means of assessing the role of PLD in stomatal movement. Stomatal closure was determined by measuring diffusion resistance using a steady-state porometer. Briefly, detached Arabidopsis leaves were floated with the abaxial side downward in a solution containing 5 mM MES-KOH (pH 6.1), 22 mM KCl, and 1 mM CaCl2 for 1 hour under the same light conditions used for growing plants. Leaves then were incubated without or with ABA at indicated concentrations. ABA was made as a 10 mM stock solution in 5% dimethyl sulfoxide (DMSO), and the same amount of DMSO (0.005%) was also added to the control solution in all treatments. Stomatal aperture of detached leaves was measured as diffusion resistance with a steady state porometer using the method of Thimann and S. O. Satler, Relation Between Leaf Senescence and Stomatal Closure: Senescence in Light, 76 Proc. Natl. Acad. Sci. USA, 2295-2298 (1979). For tobacco plants, leaf diffusion resistance was also measured in leaves attached to approximately 2-month-old plants following foliar spraying of ABA at indicated concentrations. Changes in diffusion resistance in response to ABA in both detached and intact leaves were monitored at indicated time intervals. […] Soil moisture in the 0-20 cm soil layer was monitored during drought using a time domain reflectometer. […]

[3] = system: PLDα-deficient Arabidopsis plants; assay: as above; assay type: in vivo, Arabidopsis thaliana; settings: ABA 10 μM sprayed once a day, PLDα-deficient plants under drought
Protocol: as §1

PLD = settings: tissues or guard cells treated with ABA; cited from earlier work
[4] = system: PLDα-depleted (antisense) Arabidopsis leaves; assay: Stomatal closure measured as diffusion resistance (steady state porometer) in detached leaves incubated with ABA; assay type: in vivo, Arabidopsis thaliana; settings: PLDα-suppressed leaves
Protocol: (§2) The depletion of PLDα in guard cells provides a means of assessing the role of PLD in stomatal movement. Stomatal closure was determined by measuring diffusion resistance using a steady-state porometer. Briefly, detached Arabidopsis leaves were floated with the abaxial side downward in a solution containing 5 mM MES-KOH (pH 6.1), 22 mM KCl, and 1 mM CaCl2 for 1 hour under the same light conditions used for growing plants. Leaves then were incubated without or with ABA at indicated concentrations. ABA was made as a 10 mM stock solution in 5% dimethyl sulfoxide (DMSO), and the same amount of DMSO (0.005%) was also added to the control solution in all treatments. Stomatal aperture of detached leaves was measured as diffusion resistance with a steady state porometer using the method of Thimann and S. O. Satler, Relation Between Leaf Senescence and Stomatal Closure: Senescence in Light, 76 Proc. Natl. Acad. Sci. USA, 2295-2298 (1979). For tobacco plants, leaf diffusion resistance was also measured in leaves attached to approximately 2-month-old plants following foliar spraying of ABA at indicated concentrations. Changes in diffusion resistance in response to ABA in both detached and intact leaves were monitored at indicated time intervals. Before drought treatment was imposed, Arabidopsis plants were grown in a greenhouse for 6-8 weeks and watered regularly. Soil water content in each pot was adjusted to approximately the same level before drought treatment. Plants were subjected to drought by withholding irrigation and the soil surface in each pot was covered with plastic wraps to minimize evaporation. Soil moisture in the 0-20 cm soil layer was monitored during drought using a time domain reflectometer. When ABA (10 μM) was sprayed on plants in some treatments, control groups of plants were sprayed with water in the same amount as for the ABA treatment. Leaves were collected at various times of drought treatment, and leaf water potential (ψw) was measured with a thermocouple psychrometer.
(§3) Detached Arabidopsis leaves were floated with the abaxial side downward in a solution containing 5 mM MES-KOH (pH 6.1), 22 mM KCl, and 1 mM CaCl2 for 1 hour under the same light conditions used for growing plants. Leaves then were incubated without or with ABA at indicated concentrations. ABA was made as a 10 mM stock solution in 5% dimethyl sulfoxide (DMSO), and the same amount of DMSO (0.005%) was also added to the control solution in all treatments. Stomatal aperture was measured as diffusion resistance with a steady state porometer (Li-COR 1600, Lincoln, Nebr.). The porometer was set for aperture of 0.5 cm^2, pressure of 100 pa, and relative humidity of 30%. Changes in diffusion resistance were monitored on plants at indicated time intervals.

[5] = system: wild-type Arabidopsis leaves; assay: as above; assay type: in vivo, Arabidopsis thaliana
Protocol: as §2, §3

[6] = system: control tobacco plants (empty vector); assay: Leaf diffusion resistance measured directly on plants after foliar ABA spray; assay type: in vivo, Nicotiana tabacum; settings: 2.5 and 5 μM ABA sprayed, 20 minutes after application, relative to plants sprayed with water
Protocol: as §1

| Compound | effect of PA addition compared with ABA [1] | ionic efflux (guard cell protoplasts) | effect on drought resistance (leaf turgidity, leaf water potential, soil water content) [2] | effect on water loss and drought resistance [3] | PLD activity (and gene expression) after ABA (PLD) | effect on stomatal closure ([4]; 2 μM ABA) | ABA-induced increase in diffusion resistance, relative to that observed in wild-type leaves ([4]; 10 μM ABA) | ABA concentration at which diffusion resistance reached a plateau ([4]; 0.5-50 μM ABA tested, 20 minutes) | effect on stomatal closure ([5]; 2 μM ABA, wild-type leaves) | increase in diffusion resistance (stomatal closure) ([5]; 10 μM ABA, detached wild-type leaves) | persistence of the ABA effect on diffusion resistance ([5]; 10 μM ABA, wild-type) | increase in leaf diffusion resistance [6] |
| --- | --- | --- | --- | --- | --- | --- | --- | --- | --- | --- | --- | --- |
| phosphatidic acid [PA] | partially mimicked the effect of ABA | increase in ionic efflux |  |  |  |  |  |  |  |  |  |  |
| CC1=CC(=O)CC(C)(C)[C@@]1(O)/C=C/C(C)=C\C(=O)O [ABA, abscisic acid] |  |  | enhanced resistance to drought; also recorded: improves this drought resistance | no detectable effect | increased; also recorded: increases PLD activity | no effect | approximately 50% | > 50 µM | stimulated stomatal closure | approximately twofold | more than 30 minutes | about 30% |
